# Reference: US7405280B2, “Chromogenic substances and use thereof for the determination of carboxypeptidase activities” (Diagnostica Stago, priority 2001, dated 2008)
# Key:
# purified TAFI (TAFIa) = target: T1, purified TAFI (TAFIa) (Homo sapiens, UniProt Q96IY4); test: Hydrolysis of MxAFR or MxPAFFK by activated purified TAFI solution; assay type: biochemical; conditions: purified TAFI 18 μg/ml
# T1 sequence (Q96IY4 115-423): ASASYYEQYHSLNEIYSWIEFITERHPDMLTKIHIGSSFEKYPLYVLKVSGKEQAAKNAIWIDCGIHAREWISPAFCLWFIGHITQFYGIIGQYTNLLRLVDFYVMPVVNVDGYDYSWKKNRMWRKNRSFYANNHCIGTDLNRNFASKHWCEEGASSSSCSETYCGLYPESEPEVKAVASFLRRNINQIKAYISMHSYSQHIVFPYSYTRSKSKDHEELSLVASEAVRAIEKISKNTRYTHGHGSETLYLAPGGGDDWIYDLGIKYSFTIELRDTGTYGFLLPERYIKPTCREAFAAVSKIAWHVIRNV
# Procedure: 2/ The method of the invention was then applied to a solution of purified TAFI either with a substrate with formula (I) (MxPAFFK) or with MxAFR to verify that TAFIa nevertheless hydrolyzes a compound with formula (I). Coagulation activation was triggered by the thrombin-thrombomodulin-CaCl2 complex (see protocol in Example N^o 2).
# The reduction in coloration of each of the two samples was followed using a spectrophotometer. • a) Starting samples: purified TAFI solution, 18 μg/ml (diluted in Hepes buffer); • b) activating coagulation; • c) adding 27 mM MxAFR or MXPAFFK (control), concentration of MxAFFK; • d) adding CPA to the sample containing the MxPAFFK; • e) read OD at 382 nm.
# plasma TAFI (TAFIa) = target: T2, plasma TAFI (TAFIa) (Homo sapiens, UniProt Q96IY4); test: Decolorization of single amino acid substrate AAFR by activated plasma TAFI; assay type: biochemical; conditions: compared with pancreatic CPB
# T2 construct: from tissue; host or cells: normal plasma pool, diluted 1/20
# T2 sequence (Q96IY4 115-423): T1 sequence (Q96IY4 115-423)
# Procedure: (§1) This substrate was constituted by a single amino acid carrying an anizylazoformyl chromophoric radical (CH3OC6H4—N═N—CO— portion). The amino acid selected was arginine, a basic amino acid normally hydrolyzed by carboxypeptidases B (1).
# (§2) This substrate (0.25 mM) was brought into the presence of either a sample of plasma TAFI or a solution of porcine pancreatic carboxypeptidase B (Sigma, Reference: C9584), […].
# (§3) The reduction in coloration of each of the two samples was followed using a spectrophotometer. Each sample was treated using the protocol below: • a) Starting sample: • plasma TAFI (present in a normal plasma pool—diluted to 1/20); or • porcine pancreatic carboxypeptidase B, […] (in Hepes buffer); • b) activation with thrombin-thrombomodulin-CaCl2 complex (see Example N^o 2) for the plasma TAFI sample; • c) addition of 5 mM AAFR; • d) read OD at 382 nm.
# [1] = target: T3, porcine pancreatic carboxypeptidase B (Sus scrofa, UniProt P09955); test: Decolorization of single amino acid substrate AAFR by porcine pancreatic carboxypeptidase B; assay type: biochemical; conditions: porcine CPB 5.2 mol/l in Hepes buffer; 5 mM AAFR; at 382 nm
# T3 construct: purchased Sigma C9584; host or cells: porcine pancreas
# T3 sequence (P09955 111-416): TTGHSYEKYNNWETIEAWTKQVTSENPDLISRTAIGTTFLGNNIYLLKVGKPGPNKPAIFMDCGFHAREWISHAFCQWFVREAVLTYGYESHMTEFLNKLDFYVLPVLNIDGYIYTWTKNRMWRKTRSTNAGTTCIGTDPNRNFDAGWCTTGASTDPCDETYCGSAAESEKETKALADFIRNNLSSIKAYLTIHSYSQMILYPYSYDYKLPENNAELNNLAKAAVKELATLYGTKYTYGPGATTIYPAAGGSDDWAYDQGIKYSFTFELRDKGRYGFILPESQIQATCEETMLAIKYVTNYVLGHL
# Procedure: as §1, §2, §3
# TAFI = conditions: per 1 mg of PCI; as indicated by the manufacturer (Calbiochem); cited from earlier work
Hydrolysis by activated TAFI (conclusion) (purified TAFI (TAFIa)),Hydrolysis by activated TAFI (conclusion) (plasma TAFI (TAFIa)),Final OD [1],Starting OD [1],Compound,Amount of TAFI (50 U/mg) inhibited at 50% by 1 mg of PCI (TAFI)
does not hydrolyze,does not hydrolyze,0.445,1.054,"COc1ccc(N=NC(=O)N[C@@H](CCCNC(=N)N)C(=O)O)cc1 [AAFR, 4-methoxyphenylazoformylarginine]",
active,,,,"COc1ccc(/N=N/C(=O)NC(Cc2ccccc2)C(=O)NC(CCCCN)C(=O)O)cc1 (stereo not drawn) [MxPAFFK, 4-metboxyphenylazoformylphenylalanyllysine]",
,,,,"PCI: Carboxypeptidase Inhibitor from Potato Tubers, specific TAFI inhibitor (Calbiochem ref 217359) (QQHADPICNKPCKTHDDCSGAWFCQACWNSARTCGPYVG; UniProt P01075 1-39, looked up)",about 8 mg
